PMC5572662 (ChemMedChem, 2017)
“Also recorded” adds a separate entry of the source. Square brackets hold non-standard residues; d marks the D form. Peptide text beside a SMILES is read from it. * marks the point of attachment. NH(4-amidinobenzyl) = N=C(N)c1ccc(CN*)cc1; Tle = CC(C)(C)[C@H](N)C(=O)O; PhAc = O=C(Cc1ccccc1)*

Columns and labels:
[1] = tested on: Semliki Forest virus (SFV); test: Semliki Forest virus replication in BHK-21 cells, titers by plaque assay; type: cell-based; conditions: for reduction of SFV virus titer: 25 μM inhibitor, MOI 0.01, plaque assay 24 h post-infection
E3-E2 (p62) cleavage = test: Western blot of E3-E2; type: cell-based, Semliki Forest virus; conditions: 25 μM inhibitor, BHK-21 cells, SFV MOI 10, 8 h post-infection
[2] = tested on: chikungunya virus (CHIKV); test: Chikungunya virus replication in BHK-21 cells, titers by plaque assay; type: cell-based; conditions: 25 μM inhibitor, MOI 0.1, plaque assay 24 h post-infection
[3] = target: recombinant soluble human furin (Homo sapiens, UniProt P09958); test: Enzyme kinetic measurements with recombinant soluble human furin; type: biochemical; conditions: for Ki: Furin Ki, as given in the text in nM; for fold improved Ki (inhibition constant) versus parent analogue: 20 versus 18 (P3 Val to Tle), 21 and 22 versus the P2 Lys analogues
[4] = tested on: Pseudomonas aeruginosa exotoxin A; conditions: living rodents ref 8; cited from earlier work
anthrax toxin = conditions: living rodents ref 8; cited from earlier work

recombinant soluble human furin, sequence (P09958 108-715 limits assumed): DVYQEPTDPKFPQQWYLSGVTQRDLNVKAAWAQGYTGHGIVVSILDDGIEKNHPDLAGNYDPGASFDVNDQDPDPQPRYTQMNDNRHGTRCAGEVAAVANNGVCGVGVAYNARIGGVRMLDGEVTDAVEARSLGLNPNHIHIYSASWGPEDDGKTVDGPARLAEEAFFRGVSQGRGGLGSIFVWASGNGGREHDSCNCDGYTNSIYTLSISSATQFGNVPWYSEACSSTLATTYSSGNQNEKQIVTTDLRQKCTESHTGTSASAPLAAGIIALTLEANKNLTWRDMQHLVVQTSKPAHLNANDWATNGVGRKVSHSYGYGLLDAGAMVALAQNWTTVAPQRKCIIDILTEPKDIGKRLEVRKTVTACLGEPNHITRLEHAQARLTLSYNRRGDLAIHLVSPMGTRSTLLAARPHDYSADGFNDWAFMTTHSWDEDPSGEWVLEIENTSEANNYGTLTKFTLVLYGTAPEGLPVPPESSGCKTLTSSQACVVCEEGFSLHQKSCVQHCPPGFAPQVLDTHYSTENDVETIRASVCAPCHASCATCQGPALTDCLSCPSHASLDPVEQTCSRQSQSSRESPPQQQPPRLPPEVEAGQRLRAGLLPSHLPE

Row | Compound | Ki [3] [nM] | fold improved Ki (inhibition constant) versus parent analogue [3] | also measured
1 | CC(C)[C@H](NC(=O)[C@H](CCCNC(=N)N)NC(=O)[C@H](CCCNC(=N)N)NC(=O)[C@H](CCCNC(=N)N)NC(=O)Cc1ccccc1)C(=O)N[C@@H](CCCNC(=N)N)C(=O)NCc1ccc(C(=N)N)cc1 [Compound 5, Phac-Arg-Arg-Arg-Val-Arg-4-Amba] (PhAc-RRRVR-{NH(4-amidinobenzyl)}) | – | – | reduction of SFV virus titer [1]: less than one order of magnitude
2 | CC(C)[C@H](NC(=O)[C@H](CCCNC(=N)N)NC(=O)[C@H](CCCNC(=N)N)NC(=O)[C@H](N)CCCNC(=N)N)C(=O)N[C@@H](CCCNC(=N)N)C(=O)NCc1ccc(C(=N)N)cc1 [Compound 9, H-DArg-Arg-Arg-Val-Arg-4-Amba] (H-[dR]RRVR-{NH(4-amidinobenzyl)}) | – | – | reduction of SFV virus titer [1]: less than one order of magnitude; also recorded: strongly reduced titers; concentration dependence of inhibition of SFV replication ([1]; MOI 0.01, 24 h post-infection (Figure 4)): concentration-dependent inhibition of SFV replication; inhibition of E3-E2 (p62) cleavage (E3-E2 (p62) cleavage): Inhibition of E3-E2 (p62) cleavage; reduction of CHIKV virus titer [2]: strongly reduced titers
3 | CC(=O)N[C@@H](CC(C)C)C(=O)N[C@@H](CC(C)C)C(=O)N[C@@H](CC(C)C)C(=O)N[C@@H](CC(C)C)C(=O)N[C@@H](CCCN=C(N)N)C(=O)N[C@H](C(=O)N[C@@H](CCCCN)C(=O)NCc1ccc(C(=N)N)cc1)C(C)C [Compound 18, Ac-Leu-Leu-Leu-Leu-Arg-Val-Lys-4-Amba, reference compound] (Ac-LLLLRVK-{NH(4-amidinobenzyl)}) | ~0.5 | – | –
4 | CC(=O)N[C@H](CC(C)C)C(=O)N[C@@H](CC(C)C)C(=O)N[C@@H](CC(C)C)C(=O)N[C@@H](CC(C)C)C(=O)N[C@@H](CCCNC(=N)N)C(=O)N[C@H](C(=O)N[C@@H](CCCCN)C(=O)NCc1ccc(C(=N)N)cc1)C(C)C [Compound 19, Ac-DLeu-Leu-Leu-Leu-Arg-Val-Lys-4-Amba, reference compound] (Ac-[dL]LLLRVK-{NH(4-amidinobenzyl)}) | ~0.5 | – | –
5 | CC(=O)N[C@@H](CC(C)C)C(=O)N[C@@H](CC(C)C)C(=O)N[C@@H](CC(C)C)C(=O)N[C@@H](CC(C)C)C(=O)N[C@@H](CCCNC(=N)N)C(=O)N[C@H](C(=O)N[C@@H](CCCCN)C(=O)NCc1ccc(C(=N)N)cc1)C(C)(C)C [Compound 20, Ac-Leu-Leu-Leu-Leu-Arg-Tle-Lys-4-Amba] (Ac-LLLLR[Tle]K-{NH(4-amidinobenzyl)}) | – | 2.5 fold | –
6 | CC(=O)N[C@@H](CC(C)C)C(=O)N[C@@H](CC(C)C)C(=O)N[C@@H](CC(C)C)C(=O)N[C@@H](CC(C)C)C(=O)N[C@@H](CCCNC(=N)N)C(=O)N[C@H](C(=O)N[C@@H](CCCNC(=N)N)C(=O)NCc1ccc(C(=N)N)cc1)C(C)C [Compound 21, Ac-Leu-Leu-Leu-Leu-Arg-Val-Arg-4-Amba] (Ac-LLLLRVR-{NH(4-amidinobenzyl)}) | – | ~ 2 fold | –
7 | CC(=O)N[C@@H](CC(C)C)C(=O)N[C@@H](CC(C)C)C(=O)N[C@@H](CC(C)C)C(=O)N[C@@H](CC(C)C)C(=O)N[C@@H](CCCNC(=N)N)C(=O)N[C@H](C(=O)N[C@@H](CCCNC(=N)N)C(=O)NCc1ccc(C(=N)N)cc1)C(C)(C)C [Compound 22, Ac-Leu-Leu-Leu-Leu-Arg-Tle-Arg-4-Amba] (Ac-LLLLR[Tle]R-{NH(4-amidinobenzyl)}) | – | ~ 2 fold | –
8 | CC(C)[C@H](NC(=O)Cc1cccc(CN)c1)C(=O)N[C@@H](CCCNC(=N)N)C(=O)NCc1ccc(C(=N)N)cc1 [Compound 23, 3-AMe-Phac-Val-Arg-4-Amba] | 48.2 | – | –
9 | CC(C)[C@H](NC(=O)Cc1ccc(CN)cc1)C(=O)N[C@@H](CCCNC(=N)N)C(=O)NCc1ccc(C(=N)N)cc1 [Compound 24, 4-AMe-Phac-Val-Arg-4-Amba] | 37.8 | – | –
10 | hexa-D-arginine | – | – | protective effect against Pseudomonas aeruginosa exotoxin A [4]: protective effect; protective effect against anthrax toxin (anthrax toxin): protective effect
